Results: publication PMC10796807 (Computational and Structural Biotechnology Journal, 2023)
pEC50: −log10 of the molar value. Read-outs that look alike come from different tables or passages of the source.

Tests used:
[1] = target: T1, rat TRPV2 (rTRPV2-eGFP) (Rattus norvegicus, UniProt Q9WUD2); assay type: biochemical; conditions: for pEC50: no inhibitor
T1 sequence (Q9WUD2 1-761): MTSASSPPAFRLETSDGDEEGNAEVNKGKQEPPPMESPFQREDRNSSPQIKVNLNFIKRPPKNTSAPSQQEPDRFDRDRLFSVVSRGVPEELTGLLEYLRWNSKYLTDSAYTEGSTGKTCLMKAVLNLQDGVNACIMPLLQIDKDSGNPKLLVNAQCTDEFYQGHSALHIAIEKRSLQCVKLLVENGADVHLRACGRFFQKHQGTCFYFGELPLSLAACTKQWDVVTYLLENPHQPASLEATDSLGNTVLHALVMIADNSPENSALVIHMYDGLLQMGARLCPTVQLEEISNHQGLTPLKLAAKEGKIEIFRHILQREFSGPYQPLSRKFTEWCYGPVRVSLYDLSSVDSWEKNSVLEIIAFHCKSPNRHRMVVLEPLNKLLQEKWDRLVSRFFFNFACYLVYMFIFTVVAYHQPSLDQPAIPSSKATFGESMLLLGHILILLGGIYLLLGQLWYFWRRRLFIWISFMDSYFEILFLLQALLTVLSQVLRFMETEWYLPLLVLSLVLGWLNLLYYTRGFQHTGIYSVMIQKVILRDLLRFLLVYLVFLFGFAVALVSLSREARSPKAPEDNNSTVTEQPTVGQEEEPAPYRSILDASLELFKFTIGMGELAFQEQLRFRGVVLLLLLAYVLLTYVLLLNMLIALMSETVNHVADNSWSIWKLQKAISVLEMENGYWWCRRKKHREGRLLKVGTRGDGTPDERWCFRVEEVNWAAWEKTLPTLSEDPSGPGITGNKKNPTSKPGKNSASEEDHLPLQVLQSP

[2] = test system: rat TRPV2; conditions: cells pretreated with 2.5 mM PBCD; ref [22]; cited from earlier work
[3] = test system: mouse or rat TRPV2; conditions: read-out: reported EC50 values; ref [40]; cited from earlier work
[4] = test system: human TRPV2; conditions: ref [40]; cited from earlier work

## lysophosphatidylcholine [LPC]
[1]; read-out: EC50 (Bayesian, 90% confidence interval in brackets), TRPV2-GFP vesicles
  pEC50: 4.44

## O=C(O)c1ccc(S(=O)(=O)N2CCCCC2)cc1 [Compound 6, 4-(Piperidine-1-sulfonyl)-benzoic acid]
[1]
  Confidence that EC50 is lower than that of PBCD (Bayesian hypothesis test): 84%

## COc1cc(CNC(=O)CCCC/C=C/C(C)C)ccc1O [capsaicin]
[1]; negative controls, TRPV2-GFP vesicles
  Activation/modulation of TRPV2 (fluorescence signal): no measurable increase of fluorescence signal

## C=C(C)[C@@H]1CCC(C)=C[C@H]1c1c(O)cc(CCCCC)cc1O [CBD, cannabidiol]
[2]
  pEC50: 5.43
[3]
  pEC50: 6.00 to 8.00
[4]
  activation: no activation of human TRPV2
[1]; EC50 (Bayesian, 90% confidence interval in brackets), TRPV2-GFP vesicles
  pEC50: 3.96
